In patent US8637525B2, “Compounds for the reduction of beta-amyloid production” (Bristol-Myers Squibb Company, priority 2009, dated 2014):
Like-named read-outs stand apart in the source and are kept apart here.

Tested on: Aβ1-42 production
Assay: Cellular assay for inhibition of Aβ1-42 production (H4 APP751 SWE clone 8.20)
Format: cell-based
Conditions: H4 APP751 SWE clone 8.20 cells, 19 h incubation
In short: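 Secreted peptide was quantified with a two-antibody homogeneous format combining Wallac-labelled 565, which recognises the Aβ42 end, and APC-labelled 26D6 at 0.8 and 75 ng/well respectively. Antibodies were diluted in 40 mM Tris-HCl, pH 7.4, 0.2% BSA and left overnight at 4 °C after a 19 h compound incubation.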

[1] = 19 h, class symbols, read-out: Activity Rating (Aβ42 cellular IC50)
[2] = class symbols, read-out: Activity Rating (Aβ42 cellular IC50)
[3] = 19 h, read-out: Activity Rating (Aβ42 cellular IC50), numeric value

Structure (SMILES) | IC50 [1] [nM] | IC50 [2] [nM] | also measured
COc1cc(Nc2nc3c(c(N4CC(C)(C#N)C4)n2)CCC3c2ccc(F)cc2)ccc1-n1cnc(Cl)c1 (stereo not drawn) [Example 186, 1-(2-(4-(4-chloro-1H-imidazol-1-yl)-3-methoxyphenylamino)-7-(4-fluorophenyl)-6,7-dihydro-5H-cyclopenta[d]pyrimidin-4-yl)-3-methylazetidine-3-carbonitrile] | 10 to 100 | – | –
COc1cc(Nc2nc3c(c(N4CC(F)(F)C4)n2)COCC3c2ccc(Cl)cc2)ccc1-n1cnc(Cl)c1 (stereo not drawn) [Example 66, N-(4-(4-chloro-1H-imidazol-1-yl)-3-methoxyphenyl)-8-(4-chlorophenyl)-4-(3,3-difluoroazetidin-1-yl)-7,8-dihydro-5H-pyrano[4,3-d]pyrimidin-2-amine] | 10 to 100 | – | –
CNc1nc(Nc2ccc(-n3cnc(C)n3)c(F)c2)nc2c1CN(S(=O)(=O)C1CC1)CC2c1ccccc1 (stereo not drawn) [Example 141, 6-(cyclopropylsulfonyl)-N2-(3-fluoro-4-(3-methyl-1H-1,2,4-triazol-1-yl)phenyl)-N4-methyl-8-phenyl-5,6,7,8-tetrahydropyrido[4,3-d]pyrimidine-2,4-diamine] | – | 10 to 100 | –
CNc1nc(Nc2ccc(-n3cnc(Cl)c3)c(OC)c2)nc2c1CCOC2c1ccccc1 (stereo not drawn) [Example 85, N2-(4-(4-chloro-1H-imidazol-1-yl)-3-methoxyphenyl)-N4-methyl-8-phenyl-6,8-dihydro-5H-pyrano[3,4-d]pyrimidine-2,4-diamine] | 1.5 to 9.9 | – | –
CNc1nc(Nc2ccc(-n3ncnc3C)c(F)c2)nc2c1CCC2c1ccc(F)cc1 (stereo not drawn) [Example 26, N^2-(3-fluoro-4-(5-methyl-1H-1,2,4-triazol-1-yl)phenyl)-7-(4-fluorophenyl)-N^4-methyl-6,7-dihydro-5H-cyclopenta[d]pyrimidine-2,4-diamine] | – | 1.5 to 9.9 | –
CCNc1nc(Nc2ccc(-n3cnc(Cl)c3)c(OC)c2)nc2c1CN(CC(F)F)CC2c1ccccc1 (stereo not drawn) [Example 197A, N4-ethyl-N2-(3-methoxy-4-(4-chloro-1H-13-imidazol-1-yl)phenyl)-8-phenyl-6-(2,2-difluoroethyl)-5,6,7,8-tetrahydropyrido[4,3-d]pyrimidine-2,4-diamine] | – | – | IC50 (read-out: Activity Rating (Aβ42 cellular IC50), numeric value): 60 nM
COc1cc(Nc2nc3c(c(N4CC(OC)C4)n2)CCC3c2ccccc2)ccc1-n1cnc(Cl)c1 (stereo not drawn) [Example 183, N-(4-(4-chloro-1H-imidazol-1-yl)-3-methoxyphenyl)-4-(3-methoxyazetidin-1-yl)-7-phenyl-6,7-dihydro-5H-cyclopenta[d]pyrimidin-2-amine] | – | – | IC50 [3]: 11 nM
COc1cc(Nc2nc3c(c(N4C[C@@H]5C[C@H]4CO5)n2)CCC3c2ccc(F)cc2)ccc1-n1cnc(Cl)c1 (stereo partly drawn) [Example 18, 4-((1S,4S)-2-oxa-5-azabicyclo[2.2.1]heptan-5-yl)-N-(4-(4-chloro-1H-imidazol-1-yl)-3-methoxyphenyl)-7-(4-fluorophenyl)-6,7-dihydro-5H-cyclopenta[d]pyrimidin-2-amine] | 10 to 100 | – | –
COc1cc(Nc2nc3c(c(N(C)C)n2)CCC3c2ccc(F)cc2)ccc1-n1cnc(Cl)c1 (single isomer, unassigned) [Example 46A, N^2-(4-(4-chloro-1H-imidazol-1-yl)-3-methoxyphenyl)-7-(4-fluorophenyl)-N^4,N^4-dimethyl-6,7-dihydro-5H-cyclopenta[d]pyrimidine-2,4-diamine] | – | 1.5 to 9.9 | –
CNc1nc(Nc2ccc3nc(C)sc3c2)nc2c1CCC2c1ccccc1 (stereo not drawn) [Example 255, N4-methyl-N2-(2-methylbenzo[d]thiazol-6-yl)-7-phenyl-6,7-dihydro-5H-cyclopenta[d]pyrimidine-2,4-diamine] | > 1000 | – | –
CNc1nc(Nc2ccc(-n3ncnc3C)c(F)c2)nc2c1COCC2c1ccc(Cl)cc1 (stereo not drawn) [Example 69, 8-(4-chlorophenyl)-N^2-(3-fluoro-4-(5-methyl-1H-1,2,4-triazol-1-yl)phenyl)-N^4-methyl-7,8-dihydro-5H-pyrano[4,3-d]pyrimidine-2,4-diamine] | 10 to 100 | – | –
CCNc1nc(Nc2ccc(-n3cnc(C)n3)c(F)c2)nc2c1CN(C)CC2c1ccccc1 (stereo not drawn) [Example 152, N4-ethyl-N2-(3-fluoro-4-(3-methyl-1H-1,2,4-triazol-1-yl)phenyl)-6-methyl-8-phenyl-5,6,7,8-tetrahydropyrido[4,3-d]pyrimidine-2,4-diamine] | 10 to 100 | – | –
CCNc1nc(Nc2ccc(-n3cnc(Cl)c3)c(OC)c2)nc2c1CCN(C)C2c1ccc(F)cc1 (stereo not drawn) [Example 175, N2-(4-(4-chloro-1H-imidazol-1-yl)-3-methoxyphenyl)-N4-ethyl-8-(4-fluorophenyl)-7-methyl-5,6,7,8-tetrahydropyrido[3,4-d]pyrimidine-2,4-diamine] | 10 to 100 | – | –
COc1cc(Nc2nc3c(c(N4CC5(C4)OCCO5)n2)CCC3c2ccccc2)ccc1-n1cnc(Cl)c1 (stereo not drawn) [Example 184, N-(4-(4-chloro-1H-imidazol-1-yl)-3-methoxyphenyl)-7-phenyl-4-(5,8-dioxa-2-azaspiro[3.4]octan-2-yl)-6,7-dihydro-5H-cyclopenta[d]pyrimidin-2-amine] | 10 to 100 | – | –
COc1ccc(CN2CCc3c(nc(Nc4ccc(-n5cnc(Cl)c5)c(OC)c4)nc3N3CC[C@H](F)C3)C2c2ccc(F)cc2)cc1 (stereo partly drawn) [Example 167A, N-(4-(4-chloro-1H-imidazol-1-yl)-3-methoxyphenyl)-8-(4-fluorophenyl)-4-((S)-3-fluoropyrrolidin-1-yl)-7-(4-methoxybenzyl)-5,6,7,8-tetrahydropyrido[3,4-d]pyrimidin-2-amine] | – | – | IC50 [3]: 26 nM
COc1cc(Nc2nc3c(c(N4CC(F)(F)C4)n2)CCC3c2ccc(Cl)cc2)ccc1-n1cnc(Cl)c1 (stereo not drawn) [Example 93, N-(4-(4-Chloro-1H-imidazol-1-yl)-3-methoxyphenyl)-7-(4-chlorophenyl)-4-(3,3-difluoroazetidin-1-yl)-6,7-dihydro-5H-cyclopenta[d]pyrimidin-2-amine] | – | – | IC50 [3]: 20 nM
CNc1nc(Nc2ccc(C#N)c3ccccc23)nc2c1CCC2c1ccccc1 (stereo not drawn) [Example 229, 4-(4-(methylamino)-7-phenyl-6,7-dihydro-5H-cyclopenta[d]pyrimidin-2-ylamino)-1-naphthonitrile] | > 1000 | – | –
COc1cc(Nc2nc3c(c(N4CC(F)(F)C4)n2)CN(C)CC3c2ccc(F)cc2)ccc1-n1cnc(Cl)c1 (stereo not drawn) [Example 159, N-(4-(4-chloro-1H-imidazol-1-yl)-3-methoxyphenyl)-4-(3,3-difluoroazetidin-1-yl)-8-(4-fluorophenyl)-6-methyl-5,6,7,8-tetrahydropyrido[4,3-d]pyrimidin-2-amine] | 10 to 100 | – | –

Now from value to compound, other results behind:

IC50 [1] [nM] | IC50 [2] [nM] | Structure (SMILES) | also measured
– | 10 to 100 | CNc1nc(Nc2ccc(-n3cnc(Cl)c3)c(OC)c2)nc2c1CCC2c1ccc(OC(F)(F)F)cc1 (single isomer, unassigned) [Example 97B, N^2-(4-(4-chloro-1H-imidazol-1-yl)-3-methoxyphenyl)-N^4-methyl-7-(4-(trifluoromethoxy)phenyl)-6,7-dihydro-5H-cyclopenta[d]pyrimidine-2,4-diamine] | –
– | 10 to 100 | COc1cc(Nc2nc3c(c(N4CCC(F)(F)C4)n2)CCC3c2cc(F)c(F)c(F)c2)ccc1-n1cnc(Cl)c1 (single isomer, unassigned) [Example 107A, N-(4-(4-chloro-1H-imidazol-1-yl)-3-methoxyphenyl)-4-(3,3-difluoropyrrolidin-1-yl)-7-(3,4,5-trifluorophenyl)-6,7-dihydro-5H-cyclopenta[d]pyrimidin-2-amine] | –
– | 1.5 to 9.9 | [2H]C([2H])([2H])Nc1nc(Nc2ccc(-n3cnc(Cl)c3)c(OC)c2)nc2c1CCC2c1ccccc1 (single isomer, unassigned) [Example 176A, N^2-(4-(4-Chloro-1H-imidazol-1-yl)-3-methoxyphenyl)-N^4-trideuteromethyl-7-phenyl-6,7-dihydro-5H-cyclopenta[d]pyrimidine-2,4-diamine] | –
– | 10 to 100 | CNc1nc(Nc2ccc(-n3cnc(C)c3)c(OC)c2)nc2c1COCC2c1ccc(Cl)cc1 (single isomer, unassigned) [Example 70B, 8-(4-chlorophenyl)-N^2-(3-methoxy-4-(4-methyl-1H-imidazol-1-yl)phenyl)-N^4-methyl-7,8-dihydro-5H-pyrano[4,3-d]pyrimidine-2,4-diamine] | –
– | 1.5 to 9.9 | CCNc1nc(Nc2ccc(-n3cnc(Cl)c3)c(OC)c2)nc2c1COC2c1ccc(F)cc1 (single isomer, unassigned) [Example 75A, N^2-(4-(4-chloro-1H-imidazol-1-yl)-3-methoxyphenyl)-N^4-ethyl-7-(4-fluorophenyl)-5,7-dihydrofuro[3,4-d]pyrimidine-2,4-diamine] | –
– | 100 to 1000 | COc1cc(Nc2nc3c(c(N4CCC(F)C4)n2)CCOC3c2ccc(F)cc2)ccc1-n1cnc(Cl)c1 (stereo in doubt) [Example 91B, N-(4-(4-chloro-1H-imidazol-1-yl)-3-methoxyphenyl)-8-(4-fluorophenyl)-4-((S)-3-fluoropyrrolidin-1-yl)-6,8-dihydro-5H-pyrano[3,4-d]pyrimidin-2-amine] | –
1.5 to 9.9 | – | CNc1nc(Nc2ccc(-n3cnc(C)n3)c(OC)c2)nc2c1CC[C@H]2c1c(F)cc(F)cc1F (single isomer, unassigned) [Example 270A] | –
– | 1.5 to 9.9 | COc1cc(Nc2nc3c(c(N4CC(C)(O)C4)n2)CCC3c2ccc(F)cc2)ccc1-n1cnc(Cl)c1 (stereo not drawn) [Example 189A, 1-(2-(4-(4-chloro-1H-imidazol-1-yl)-3-methoxyphenylamino)-7-(4-fluorophenyl)-6,7-dihydro-5H-cyclopenta[d]pyrimidin-4-yl)-3-methylazetidin-3-ol] | –
– | 1.5 to 9.9 | CCNc1nc(Nc2ccc(-n3cnc(Cl)c3)c(OC)c2)nc2c1CN(C(=O)COC)CC2c1ccccc1 (stereo not drawn) [Example 133A, 1-(2-(4-(4-chloro-1H-imidazol-1-yl)-3-methoxyphenylamino)-4-(ethylamino)-8-phenyl-7,8-dihydropyrido[4,3-d]pyrimidin-6(5H)-yl)-2-methoxyethanone] | –
